pIC50: −log10 of the molar value.
Key:
Conditions in all cases: average where tested multiple times
BCAT2 [1] = molecular target: T1, BCAT2 (Homo sapiens, UniProt O15382); assay: BCAT2 in vitro cell inhibition using engineered A549 cells (KMV cell assay, 13C6-KMV by LC-MS/MS); assay type: cell-based; parameters: The result was an engineered A549 cell line that expressed endogenous BCAT2; endogenous in cells; host or cells: A549 cells with MUT and BCAT1 knocked out by CRISPR/CAS9; key to BCAT2 Cell Inhibition: A: less than or equal to 0.100 μM; B: greater than 0.100 and less than or equal to 0.500 μM; C: greater than 0.500 and less than or equal to 1.000 μM; d: greater than 1.000 μM; E: no fit
T1 sequence (O15382 28-392): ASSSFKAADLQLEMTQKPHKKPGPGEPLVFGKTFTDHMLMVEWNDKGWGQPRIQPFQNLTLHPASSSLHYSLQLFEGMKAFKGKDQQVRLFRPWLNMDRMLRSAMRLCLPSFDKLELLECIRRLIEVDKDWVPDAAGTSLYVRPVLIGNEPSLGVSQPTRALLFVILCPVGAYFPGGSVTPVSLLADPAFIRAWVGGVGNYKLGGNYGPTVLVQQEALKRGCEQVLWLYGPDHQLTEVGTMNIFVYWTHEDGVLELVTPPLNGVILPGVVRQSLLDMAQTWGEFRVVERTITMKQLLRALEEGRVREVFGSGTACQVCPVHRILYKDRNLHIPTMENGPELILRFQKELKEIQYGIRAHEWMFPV

hBCAT1 = molecular target: T2, hBCAT1 (Homo sapiens, UniProt P54687); assay: BCAT1 in vitro enzyme inhibition assay (resazurin/diaphorase-coupled fluorescence); assay type: biochemical
T2 sequence (P54687 1-386): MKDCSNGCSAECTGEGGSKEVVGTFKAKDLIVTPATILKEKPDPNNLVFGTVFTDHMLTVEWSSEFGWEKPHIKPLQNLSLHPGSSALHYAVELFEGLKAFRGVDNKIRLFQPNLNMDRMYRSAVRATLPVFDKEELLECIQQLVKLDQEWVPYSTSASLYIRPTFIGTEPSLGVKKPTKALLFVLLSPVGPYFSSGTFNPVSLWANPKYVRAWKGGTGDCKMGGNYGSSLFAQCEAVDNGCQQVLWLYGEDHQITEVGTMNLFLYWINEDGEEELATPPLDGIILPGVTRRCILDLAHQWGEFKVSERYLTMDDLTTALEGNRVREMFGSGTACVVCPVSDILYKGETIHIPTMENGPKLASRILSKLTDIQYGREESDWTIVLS
Procedure, shortened: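 Human BCAT1 activity read by resazurin/diaphorase-coupled fluorescence. Compounds added from 50× DMSO stocks at 1:50, giving 10-point 3-fold titrations from 100 μM top final concentration. Run in technical duplicate; repeat tests averaged.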

BCAT2 [2] = molecular target: T1, BCAT2; assay: BCAT2 in vitro enzyme inhibition assay (resazurin/diaphorase-coupled fluorescence); assay type: biochemical
Procedure, shortened: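 Coupled fluorescence readout: glutamate formed from L-leucine/α-ketoglutarate transamination drives GDH/NAD/diaphorase reduction of resazurin (Ex 540/Em 590). Human BCAT2 was first exposed 1 h at room temperature to compound, top final 100 μM in 3-fold, 10-point series; substrate reaction ran 1 h before SDS quench, in technical duplicate with DMSO max and enzyme-free min controls.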

Row | pIC50 (BCAT2 [1]) | pIC50 (hBCAT1) | pIC50 (BCAT2 [2]) | BCAT2 Cell Inhibition (BCAT2 [1]) | Structure (SMILES)
1 | ≥ 7.00 | > 6.30 | ≥ 7.00 |  | CC(C)Cc1nc2cnc(-n3nccn3)cc2n1[C@@H]1CCC[C@H](NC(=O)c2ccc(Cl)s2)C1 [Example 74, 5-chloro-N-((1S,3R)-3-(2-isobutyl-6-(2H-1,2,3-triazol-2-yl)-1H-imidazo[4,5-c]pyridin-1-yl)cyclohexyl)thiophene-2-carboxamide]
2 | ≥ 7.00 | > 6.30 | ≥ 7.00 |  | O=C(N[C@H]1CCC[C@@H](n2c(-c3ccccn3)nc3cnc(-c4ncco4)cc32)C1)c1ccc(Br)s1 [Example 5, 5-bromo-N-((1S,3R)-3-(6-(oxazol-2-yl)-2-(pyridin-2-yl)-1H-imidazo[4,5-c]pyridin-1-yl)cyclohexyl)thiophene-2-carboxamide]
3 |  | < 5.30 | 6.00 to 6.30 | E | CNC(=O)c1ccc2c(c1)nc(-c1ccccn1)n2C1CC(NC(=O)c2ccc(Br)s2)CN(C)C1 (stereo not drawn) [Example 288, 1-(5-(5-bromothiophene-2-carboxamido)-1-methylpiperidin-3-yl)-N-methyl-2-(pyridin-2-yl)-1H-benzo[d]imidazole-5-carboxamide]
4 | 6.00 to 6.30 | 5.30 to 6.00 | ≥ 7.00 |  | CO[C@@H]1[C@@H](NC(=O)c2ncc(Cl)s2)CCC[C@H]1n1c(-c2ccccc2F)nc2cnc(-c3nc[nH]n3)cc21 [Example 234, 5-chloro-N-((1S,2R,3R)-3-(2-(2-fluorophenyl)-6-(1H-1,2,4-triazol-3-yl)-1H-imidazo[4,5-c]pyridin-1-yl)-2-methoxycyclohexyl)thiazole-2-carboxamide]
5 | < 6.00 | > 6.30 | ≥ 7.00 |  | O=C(N[C@@H]1C[C@H](n2c(-c3ccccc3F)nc3cnc(-c4nc[nH]n4)cc32)CS(=O)(=O)C1)c1ccc(Cl)s1 [Example 456, 5-chloro-N-((3R,5S)-5-(2-(2-fluorophenyl)-6-(1H-1,2,4-triazol-3-yl)-1H-imidazo[4,5-c]pyridin-1-yl)-1,1-dioxidotetrahydro-2H-thiopyran-3-yl)thiophene-2-carboxamide]
6 | 6.30 to 7.00 | > 6.30 | ≥ 7.00 |  | CC(C)Cc1nc2cnc(-c3ncccn3)cc2n1C1CCCC(NC(=O)c2ncc(Cl)s2)C1O (stereo not drawn) [Example 383, 5-chloro-N-(2-hydroxy-3-(2-isobutyl-6-(pyrimidin-2-yl)-1H-imidazo[4,5-c]pyridin-1-yl)cyclohexyl)thiazole-2-carboxamide]
7 | 6.30 to 7.00 | > 6.30 | ≥ 7.00 |  | CC(C)Cc1nc2cnc(-c3nc[nH]n3)cc2n1[C@@H]1CCC[C@H](NC(=O)c2ncc(C#N)s2)C1 [Example 349, 5-cyano-N-((1S,3R)-3-(2-isobutyl-6-(1H-1,2,4-triazol-3-yl)-1H-imidazo[4,5-c]pyridin-1-yl)cyclohexyl)thiazole-2-carboxamide]
8 | 6.30 to 7.00 | 5.30 to 6.00 | ≥ 7.00 |  | CO[C@H]1C[C@H](NC(=O)c2ncc(Cl)s2)C[C@H](n2c(CC(C)(C)C)nc3cnc(-c4ccccn4)cc32)C1 (single isomer, unassigned) [Example 442]

The remaining lines, values behind:

Row | Structure (SMILES) | pIC50 (BCAT2 [1]) | pIC50 (hBCAT1) | pIC50 (BCAT2 [2]) | BCAT2 Cell Inhibition (BCAT2 [1])
9 | Cc1nc(-c2cc3c(cn2)nc(CC(C)C)n3[C@@H]2CCC[C@H](NC(=O)c3ncc(Cl)s3)C2)n[nH]1 [Example 165, 5-chloro-N-((1S,3R)-3-(2-isobutyl-6-(5-methyl-1H-1,2,4-triazol-3-yl)-1H-imidazo[4,5-c]pyridin-1-yl)cyclohexyl)thiazole-2-carboxamide] | ≥ 7.00 | > 6.30 | ≥ 7.00 | 
10 | CC(C)Cc1nc2cnc(-c3nc[nH]n3)cc2n1[C@@H]1C[C@@H](O)C[C@H](NC(=O)c2ncc(Cl)s2)C1 [Example 256, 5-chloro-N-((1R,3S,5S)-3-hydroxy-5-(2-isobutyl-6-(1H-1,2,4-triazol-3-yl)-1H-imidazo[4,5-c]pyridin-1-yl)cyclohexyl)thiazole-2-carboxamide] | ≥ 7.00 | > 6.30 | ≥ 7.00 | 
11 | O=C(N[C@H]1CCC[C@@H](n2c(-c3ncccc3F)nc3cnc(-c4nc[nH]n4)cc32)C1)c1ncc(C(F)F)s1 [Example 75, 5-(difluoromethyl)-N-((1S,3R)-3-(2-(3-fluoropyridin-2-yl)-6-(1H-1,2,4-triazol-3-yl)-1H-imidazo[4,5-c]pyridin-1-yl)cyclohexyl)thiazole-2-carboxamide] | ≥ 7.00 | > 6.30 | ≥ 7.00 | 
12 | O=C(N[C@H]1C[C@H](O)C[C@@H](n2c(-c3ccccc3F)nc3cnc(F)cc32)C1)c1ncc(Cl)s1 [Example 276, 5-chloro-N-((1R,3S,5S)-3-(6-fluoro-2-(2-fluorophenyl)-1H-imidazo[4,5-c]pyridin-1-yl)-5-hydroxycyclohexyl)thiazole-2-carboxamide] | ≥ 7.00 | > 6.30 | ≥ 7.00 | 
13 | O=C(N[C@H]1CCC[C@@H](n2c(-c3ncccc3F)nc3cnc(-n4nccn4)cc32)C1)c1ccc(Cl)s1 [Example 76, 5-chloro-N-((1S,3R)-3-(2-(3-fluoropyridin-2-yl)-6-(2H-1,2,3-triazol-2-yl)-1H-imidazo[4,5-c]pyridin-1-yl)cyclohexyl)thiophene-2-carboxamide] | ≥ 7.00 | > 6.30 | ≥ 7.00 | 
14 | O=C(N[C@H]1CCC[C@@H](n2c(-c3ncccc3F)nc3cnc(-c4nc[nH]n4)cc32)C1)c1ccc(Cl)s1 [Example 80, 5-chloro-N-((1S,3R)-3-(2-(3-fluoropyridin-2-yl)-6-(1H-1,2,4-triazol-3-yl)-1H-imidazo[4,5-c]pyridin-1-yl)cyclohexyl)thiophene-2-carboxamide] | ≥ 7.00 | > 6.30 | ≥ 7.00 | 
15 | CC(C)Cc1nc2cnc(-c3cccc(F)n3)cc2n1[C@@H]1CCC[C@H](NC(=O)c2ncc(Cl)s2)[C@H]1O [Example 209, 5-chloro-N-((1S,2R,3R)-3-(6-(6-fluoropyridin-2-yl)-2-isobutyl-1H-imidazo[4,5-c]pyridin-1-yl)-2-hydroxycyclohexyl)thiazole-2-carboxamide] | 6.30 to 7.00 | > 6.30 | ≥ 7.00 | 
16 | CC(C)Cc1nc2cnc(-n3nccn3)cc2n1[C@@H]1CCC[C@H](NC(=O)c2ncc(Cl)s2)[C@H]1O [Example 227, 5-chloro-N-((1S,2R,3R)-2-hydroxy-3-(2-isobutyl-6-(2H-1,2,3-triazol-2-yl)-1H-imidazo[4,5-c]pyridin-1-yl)cyclohexyl)thiazole-2-carboxamide] | ≥ 7.00 | > 6.30 | ≥ 7.00 | 
17 | O=C(N[C@H]1C[C@H](O)C[C@@H](n2c(-c3ccccc3F)nc3cnc(-c4ccccn4)cc32)C1)c1ncc(Cl)s1 (single isomer, unassigned) [Example 252] | ≥ 7.00 | > 6.30 | ≥ 7.00 | 
18 | CNC(=O)c1cc2nc(-c3ccccc3F)n(C3CCCC(NC(=O)c4ncc(Cl)s4)C3O)c2cn1 (stereo not drawn) [Example 281, 5-chloro-N-(3-(2-(2-fluorophenyl)-6-(methylcarbamoyl)-3H-imidazo[4,5-c]pyridin-3-yl)-2-hydroxycyclohexyl)thiazole-2-carboxamide] | ≥ 7.00 | > 6.30 | ≥ 7.00 | 
19 | Cn1nccc1-c1nc2cnc(-n3ccnn3)cc2n1[C@@H]1CCC[C@H](NC(=O)c2ncc(C(F)F)s2)C1 [Example 44, 5-(difluoromethyl)-N-((1S,3R)-3-(2-(1-methyl-1H-pyrazol-5-yl)-6-(1H-1,2,3-triazol-1-yl)-1H-imidazo[4,5-c]pyridin-1-yl)cyclohexyl)thiazole-2-carboxamide] |  | < 5.30 | < 6.00 | E
20 | CC(C)[C@@H](O)c1nc2cnc(-c3ccccn3)cc2n1[C@@H]1CCC[C@H](NC(=O)c2ncc(Cl)s2)C1 [Example 305, 5-chloro-N-((1S,3R)-3-(2-((R)-1-hydroxy-2-methylpropyl)-6-(pyridin-2-yl)-1H-imidazo[4,5-c]pyridin-1-yl)cyclohexyl)thiazole-2-carboxamide] | 6.30 to 7.00 | > 6.30 | ≥ 7.00 | 
